Entries after “also recorded” stand apart in the source; their conditions may differ. Like-named read-outs stand apart in the source and are kept apart here.
How the values were obtained:
[1] = biological target: T1, CXCR4 (Homo sapiens, UniProt P61073); assay: Competitive binding assay with U87-CXCR4 cells and 67Ga-Pentixafor; conditions: U87-CXCR4 cells, 67Ga-Pentixafor 4.0 nM, 37 °C, 2 h, triplicate; read-out: IC50 affinity
T1 construct: host or cells: U87 glioma cells transduced with CXCR4 (U87-CXCR4)
T1 sequence (P61073 whole entry): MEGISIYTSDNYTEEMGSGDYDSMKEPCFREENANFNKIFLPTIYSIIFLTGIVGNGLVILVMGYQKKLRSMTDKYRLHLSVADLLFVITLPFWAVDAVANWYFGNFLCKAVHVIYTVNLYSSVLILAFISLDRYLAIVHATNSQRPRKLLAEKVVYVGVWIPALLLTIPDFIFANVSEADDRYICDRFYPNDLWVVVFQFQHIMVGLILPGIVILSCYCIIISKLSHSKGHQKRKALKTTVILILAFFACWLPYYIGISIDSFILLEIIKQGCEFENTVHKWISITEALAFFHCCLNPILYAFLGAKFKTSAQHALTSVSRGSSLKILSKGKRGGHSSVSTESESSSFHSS
Procedure: In order to determine the affinity of the halogenated cyclam derivatives, competitive binding studies were performed with U87-CXCR4 cells using ^67Ga-Pentixafor (CXCR4 receptor ligand). Briefly, triplicate samples containing 0.5 × 10^6 cells pre-seeded in 6-well plate, about 1.8 kBq of ^67Ga-Pentixafor (4.0 nM) and 0.001–1000 nM of the tested ligands (total volume 1.0 ml) were incubated at 37 °C for 2 h. After incubation, the cells were washed with 2 × 1 ml of ice-cold tris-buffered saline (pH 7.4) and then collected for measurement with a WIZARD 1480 gamma counter (PerkinElmer, Waltham, MA). The IC50 values were estimated using a least squares fitting routine (GraphPad Prism 6, San Diego, CA, USA).
Competitive binding assays were performed using U87-CXCR4 cells (expressing high levels of CXCR4) and ^67Ga-Pentixafor [31, 32] as a radioligand.

[2] = tested on: U87-CXCR4 s.c. tumors; assay type: in vivo; conditions: for in vivo de-halogenation / stability on PET imaging: thyroid radioactivity on PET images; for accumulation in U87-CXCR4 s.c. tumors (in words): following i.v. injection
Procedure: (§1) All animal experiments were approved by the Institutional Animal Care and Utilization Committee of MSKCC. Eight human PCNSL xenograft models established at MSK (CG) were available for study. Female Athymic Nude Foxn (6–8 weeks old; ENVIGO) was used for subcutaneous implantation. Cancer cells, including U87-CXCR4, U87-WT, H69, and H82 (5 × 10^6 cells suspended in […] of cell culture medium/Matrigel [BD Bioscience] [v/v 5 1/1]), were inoculated to the shoulder/flank area of the animal. Twenty to 30 days after the inoculation, imaging and tissue sampling were performed when the tumor sizes were between 100 and 350 mm^3. For orthotopic models, U87-CXCR4 cells (1 × 10^5 cells suspended in 10 μl of cell culture medium) in 30-gauge needle were injected into the right frontal cortex (stereotactic coordinates: bregma + 1.7 mm (anterior), lateral − 0.5 mm (right), and at a depth of 2.5 mm). Individuals performing implantation and stereotactic injections were blinded to the experimental design.
(§2) Animals were administrated 3.7–11.1 MBq of ^76Br- or ^124I-labeled ligands via tail vein or intraspinal injection under 2 % isoflurane anesthesia. At 1 h and 24 h after injection, PET/CT imaging (or PET imaging) was performed with an Inveon PET/CT system. The tumors were centered in the field of view, and the PET acquisition time was 10 min (or longer if needed, until 50 million events are recorded). The image data were normalized to correct for non-uniformity of response of the PET camera, dead-time count losses, positron branching ratio, and physical decay to the time of injection, but no attenuation, scatter, or partial-volume averaging correction was applied. The calibration factor of both PET scanner was measured with a mouse-size phantom composed of a cylinder uniformly filled with an aqueous solution of ^18F of known activity concentration. The acquired PET/CT (or PET) images were analyzed using Inveon Research Workplace v4.2 software (or ASIPro software). Region of interest (ROI) analysis of the acquired images was performed using ASIPro software (Siemens, Malvern, PA, USA), and the observed maximum pixel value (%ID/cc) was utilized to diminish partial volume effects of tumor. The sequential radioactivity measurements (% injected dose/cc) were plotted vs. time of acquisition.
The imaging and uptake of 6 different radiolabeled cyclam derivatives were studied in subcutaneous tumor-bearing animals (animals bearing either 2 glioma or 2 glioma plus 2 lung cancer tumors) (Fig. 4). […] Radioactivity continued to increase in the U87-CXCR4 tumors but was washed out from the U87 wt (non-CXCR4-exressing) control tumors, over 60 min. […] Biodistribution studies confirmed the imaging studies. Comparing three radiolabeled cyclam derivatives, ^76Br-HZ270-1 was accumulated most avidly by U87-CXCR4 tumors and had the lowest overall systemic organ levels at 24 h post i.v. injection (Table 3). Brain radioactivity was lowest of all organs sampled. Based on these studies, ^76Br-HZ270-1 was selected for imaging intracranial CXCR4-expressing tumors.

[3] = tested on: U87-CXCR4 and U87-WT glioma cells; assay: Uptake of radiohalogenated cyclam derivatives in glioma cells; assay type: cell-based, human; conditions: 2.0 h incubation at 37 °C
Procedure: (§3) Glioma (U87-CXCR4 and U87-WT) and lung cancer (H82 and H69) cell lines with different level of CXCR4 expression were utilized for cell uptakes of all synthesized six radiotracers. Each cell line (0.25 × 10^6 per well) was seeded into 6-well plates, and on the next day, triplicate samples containing approximately 1.85 kBq of *Br or *I-labeled ligand were added and kept incubation at 37 °C for 2.0 h. After washing twice with PBS (4 °C) on the ice-bed, the cells were harvested for measurement with the gamma counter.
(§4) The uptake of 6 different radiolabeled cyclam derivatives was studied in 4 glioma and lung cancer cell lines (Fig. 2). The cell lines expressed both “high” (U87-CXCR4 and H69) and “low” (U87-WT and H82) levels of CXCR4, which were confirmed with IHC staining of CXCR4. […] These promising results from in vitro studies supported proceeding to in vivo PET imaging of CXCR4 expression in tumor-bearing animal models, using the newly developed radiolabeled cyclam derivatives.

[4] = tested on: H69 and H82 lung cancer cells; assay: Uptake of radiohalogenated cyclam derivatives in lung cancer cells; assay type: cell-based, human; conditions: 2.0 h incubation at 37 °C
Procedure: as §3, §4

[5] = tested on: HIV; conditions: cited from earlier work
[6] = tested on: U87-CXCR4, U87-WT, H69 and H82 s.c. tumors; assay: Biodistribution in s.c. tumor-bearing animals 24 h after i.v. injection; assay type: in vivo, mice; conditions: n = 3
Procedure: as §1, with “design. […]” for “design.”
After the last PET imaging time point, the animals were euthanized for tissue dissection. […] The total injected radioactivity per animal was determined from the measured radioactivity in an aliquot of the injectate. Data were expressed as percent of injected dose per gram of tissue (%ID/g).

[7] = tested on: intracranial U87-CXCR4 tumors; assay: PET imaging of intracranial U87-CXCR4 xenografts; assay type: in vivo, mice; conditions: i.v. injection
Procedure: All animal experiments were approved by the Institutional Animal Care and Utilization Committee of MSKCC. Eight human PCNSL xenograft models established at MSK (CG) were available for study. Female Athymic Nude Foxn (6–8 weeks old; ENVIGO) was used for subcutaneous implantation. Cancer cells, including U87-CXCR4, U87-WT, H69, and H82 (5 × 10^6 cells suspended in […] of cell culture medium/Matrigel [BD Bioscience] [v/v 5 1/1]), were inoculated to the shoulder/flank area of the animal. Twenty to 30 days after the inoculation, imaging and tissue sampling were performed when the tumor sizes were between 100 and 350 mm^3. […]
Animals were administrated 3.7–11.1 MBq of ^76Br- or ^124I-labeled ligands via tail vein or intraspinal injection under 2 % isoflurane anesthesia. […] The tumors were centered in the field of view, and the PET acquisition time was 10 min (or longer if needed, until 50 million events are recorded). […] The calibration factor of both PET scanner was measured with a mouse-size phantom composed of a cylinder uniformly filled with an aqueous solution of ^18F of known activity concentration. The acquired PET/CT (or PET) images were analyzed using Inveon Research Workplace v4.2 software (or ASIPro software). […] The sequential radioactivity measurements (% injected dose/cc) were plotted vs. time of acquisition. […]

[8] = tested on: intracranial PCNSL-15 CXCR4-expressing tumors; assay: PET imaging and autoradiography of intracranial PCNSL-15 tumors; assay type: in vivo, mice
Procedure: as §2, with “acquisition. […]” for “acquisition.”

Row | IC50 [1] [nM] | Compound | Biodistribution, Blood [6] | Biodistribution, Bone [6] [%ID/g] | Biodistribution, Brain [6] [%ID/g] | Biodistribution, Heart [6] [%ID/g] | Biodistribution, Kidneys [6] [%ID/g] | Biodistribution, Liver [6] [%ID/g] | Biodistribution, Spleen [6] [%ID/g] | Biodistribution, U87 CXCR4 tumor [6] [%ID/g] | Biodistribution, U87 WT tumor [6] [%ID/g] | further results
1 | 9.47 ± 2.87 | Brc1cc(CN2CCCNCCNCCCNCC2)ccc1CN1CCCNCCNCCCNCC1 [HZ261] |  |  |  |  |  |  |  |  |  | 
2 |  | [124I]c1cc(CN2CCCNCCNCCCNCC2)ccc1CN1CCCNCCNCCCNCC1 [^124I-HZ262] |  |  |  |  |  |  |  |  |  | in vivo de-halogenation / stability on PET imaging [2]: greater in vivo stability; in vivo de-halogenation / stability on PET imaging ([2]; listed as 124I-AMD3100): no in vivo de-iodination
3 |  | [131I]c1cc(CN2CCCNCCNCCCNCC2)ccc1CN1CCCNCCNCCCNCC1 [^131I-HZ262] |  |  |  |  |  |  |  |  |  | U87-CXCR4/U87-wt uptake ratio [3]: 3.19 ± 1.02; radiotracer accumulation in U87-CXCR4 vs U87-WT cells (in words) [3]: highest; H69/H82 uptake ratio [4]: 3.81 ± 0.40; radiotracer accumulation in H69 vs H82 cells (in words) [4]: highest; accumulation in U87-CXCR4 s.c. tumors (in words) [2]: accumulated highest
4 |  | c1cc(CN2CCCNCCNCCCNCC2)ccc1CN1CCCNCCNCCCNCC1 [AMD3100] |  |  |  |  |  |  |  |  |  | inhibited HIV infection, concentration range [5]: 1 to 10 nM
5 | 15.9 ± 0.4 | Ic1cc(CN2CCCNCCNCCCNCC2)ccc1CN1CCCNCCNCCCNCC1 [HZ262] |  |  |  |  |  |  |  |  |  | 
6 |  | [124I]c1cc(CNCc2ccccn2)ccc1CN1CCCNCCNCCCNCC1 [^124I-HZ271-1] | 1.5 ± .05 %ID/g | 0.99 ± 0.33 | 0.07 ± 0.04 | 2.0 ± 0.4 | 45.0 ± 5.7 | 30 ± 23 | 1.3 ± 0.7 | 2.0 ± 0.3 | 0.96 ± 0.21 | Biodistribution, H69 tumor [6]: 2.3 ± 0.2 %ID/g; Biodistribution, H82 tumor [6]: 1.1 ± 1.0 %ID/g; Biodistribution, Lungs [6]: 2.3 ± 1.4 %ID/g; in vivo de-halogenation / stability on PET imaging [2]: significant decomposition in vivo
7 |  | [76Br]c1cc(CN2CCCNCCNCCCNCC2)ccc1CNCc1ccccn1 [^76Br-HZ270-2] | 1.6 ± 0.5 %ID/g | 1.9 ± 0.6 | 0.53 ± 0.01 | 2.3 ± 0.4 | 53.7 ± 12.6 | 15.3 ± 3.5 | 2.5 ± 0.2 | 4.8 ± 1.6 | 1.5 ± 0.2 | 
8 |  | [76Br]c1cc(CNCc2ccccn2)ccc1CN1CCCNCCNCCCNCC1 [^76Br-HZ270-1] | 0.59 ± 0.12 %ID/g | 2.9 ± 0.5 | 0.14 ± 0.04 | 1.7 ± 0.3 | 41.3 ± 24.1 | 7.6 ± 1.3 | 2.1 ± 0.8 | 9.5 ± 1.3 | 1.6 ± 0.7 | U87-CXCR4/U87-wt uptake ratio [3]: 2.96 ± 0.67; radiotracer accumulation in U87-CXCR4 vs U87-WT cells (in words) [3]: highest; H69/H82 uptake ratio [4]: 3.93 ± 0.74; radiotracer accumulation in H69 vs H82 cells (in words) [4]: highest; accumulation in U87-CXCR4 s.c. tumors (in words) [2]: accumulated highest; PET imaging of CXCR4 expression in intracranial U87-CXCR4 tumors [7]: unsuccessful; also recorded: Very low levels of radioactivity were visualized; localization of radioactivity after spinal-CSF injection ([8]; autoradiography with CXCR4 IHC and H&E, PET 1 and 24 h post injection): not localized to CXCR4-expressing tumor; PET imaging of CXCR4 expression in intracranial PCNSL #15 tumors ([8]; i.v. or spinal-CSF injection): unsuccessful

Row | Compound | IC50 [1] [nM] | Biodistribution, Blood [6] | Biodistribution, Bone [6] [%ID/g] | Biodistribution, Brain [6] [%ID/g] | Biodistribution, Heart [6] [%ID/g] | Biodistribution, Kidneys [6] [%ID/g] | Biodistribution, Liver [6] [%ID/g] | Biodistribution, Spleen [6] [%ID/g] | Biodistribution, U87 CXCR4 tumor [6] [%ID/g] | Biodistribution, U87 WT tumor [6] [%ID/g] | further results
9 | c1ccc(CNCc2ccc(CN3CCCNCCNCCCNCC3)cc2)nc1 [AMD3465, reference compound] | 15 ± 5.8 |  |  |  |  |  |  |  |  |  | 

Reference: publication PMC7497443, “Imaging CXCR4 Expression with Iodinated and Brominated Cyclam Derivatives” (Molecular Imaging and Biology, 2020)
